For the test, the target named is human PDE10A2 (Homo sapiens (Human), UniProt Q9Y233). The test is described as follows: PDE10 fluorescence polarization (IMAP FP) inhibition assay. It is filed as biochemical. The conditions noted are these: human PDE10A2 lysate, FAM-labeled cAMP 50 nM, room temperature; read-out: PDE10A Ki. In short, it runs like this:
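Cytoplasmic lysate of AD293 cells transiently expressing human PDE10A2, diluted for ~20% conversion of 50 nM FAM-cAMP, in 10 mM Tris pH 7.2, 10 mM MgCl2, 1 mM DTT, 0.01% Tween-20. Reaction 30 min at room temperature, read by IMAP fluorescence polarization; 10-point 3-fold titrations, 1% DMSO as 0%, reference PDE10 inhibitor at 5,000× Ki as 100%.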
On the technique in general: Fluorescence polarisation rises when a labelled molecule tumbles more slowly, as on binding a larger partner.

Drawing on patent US9353104B2, “Substituted pyridizinone derivatives as PDE10 inhibitors” (priority 2013, dated 2016), this text covers Ki for 1 molecule.

What is called Ki is the dissociation constant of the complex between target and ligand, obtained from inhibition or displacement.

human PDE10A2, sequence (Q9Y233 267-1055): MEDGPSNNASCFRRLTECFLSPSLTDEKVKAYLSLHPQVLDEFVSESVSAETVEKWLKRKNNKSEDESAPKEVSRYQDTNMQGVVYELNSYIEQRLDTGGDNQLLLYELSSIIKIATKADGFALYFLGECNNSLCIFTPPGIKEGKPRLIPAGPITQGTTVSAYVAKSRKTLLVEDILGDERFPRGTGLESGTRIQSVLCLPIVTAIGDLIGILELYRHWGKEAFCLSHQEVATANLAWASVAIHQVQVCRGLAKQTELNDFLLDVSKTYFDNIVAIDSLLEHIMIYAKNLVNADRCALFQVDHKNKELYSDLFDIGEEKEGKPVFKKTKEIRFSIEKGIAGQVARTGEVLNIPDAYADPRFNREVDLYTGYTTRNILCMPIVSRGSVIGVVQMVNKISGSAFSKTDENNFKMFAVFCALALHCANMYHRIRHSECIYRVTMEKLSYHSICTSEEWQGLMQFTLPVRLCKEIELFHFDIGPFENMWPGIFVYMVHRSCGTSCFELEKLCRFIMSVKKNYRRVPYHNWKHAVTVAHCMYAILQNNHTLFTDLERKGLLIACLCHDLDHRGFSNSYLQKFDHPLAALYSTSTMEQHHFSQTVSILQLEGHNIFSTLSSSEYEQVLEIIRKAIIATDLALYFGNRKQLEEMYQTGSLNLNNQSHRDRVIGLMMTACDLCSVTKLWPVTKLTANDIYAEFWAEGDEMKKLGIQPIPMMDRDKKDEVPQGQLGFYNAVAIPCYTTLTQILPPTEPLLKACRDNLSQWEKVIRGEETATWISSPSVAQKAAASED

Regarding `COc1ccc([C@H]2C[C@@H]2COc2cc(NCc3cnn(C)n3)c(=O)n(C)n2)nc1` [Example 148, 6-(((1S,2S)-2-(5-methoxypyridin-2-yl)cyclopropyl)methoxy)-2-methyl-4-((2-methyl-2H-1,2,3-triazol-4-yl)methylamino)pyridazin-3(2H)-one], the Ki was 648 pM.
